In data set [1] the target is T1, CYP1A1 (Homo sapiens, UniProt P04798).
T1 sequence (P04798 whole entry): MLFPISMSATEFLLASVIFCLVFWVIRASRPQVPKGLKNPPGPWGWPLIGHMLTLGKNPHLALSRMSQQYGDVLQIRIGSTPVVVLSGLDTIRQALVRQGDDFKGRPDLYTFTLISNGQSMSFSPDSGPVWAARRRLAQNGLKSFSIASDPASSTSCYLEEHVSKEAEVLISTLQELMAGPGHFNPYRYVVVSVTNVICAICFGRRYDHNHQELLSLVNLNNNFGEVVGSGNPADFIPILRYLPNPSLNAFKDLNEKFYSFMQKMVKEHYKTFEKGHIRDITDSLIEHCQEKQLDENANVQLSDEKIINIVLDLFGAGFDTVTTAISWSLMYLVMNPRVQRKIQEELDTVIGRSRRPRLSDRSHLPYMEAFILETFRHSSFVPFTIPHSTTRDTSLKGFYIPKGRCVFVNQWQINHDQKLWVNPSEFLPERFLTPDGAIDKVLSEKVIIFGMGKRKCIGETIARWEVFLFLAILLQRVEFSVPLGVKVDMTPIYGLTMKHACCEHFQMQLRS
Nature of the data set: Inhibition of CYP1A1 in human Caco-2 cells assessed as relative activity by measuring fold change at 500 nM incubated for 12 hrs by EROD assay relative to control. It is filed as cell-based. The note with it: read-out: FC.

For data set [2], the target named is T2, CYP1A1 (Mus musculus, UniProt P00184).
T2 sequence (P00184 whole entry): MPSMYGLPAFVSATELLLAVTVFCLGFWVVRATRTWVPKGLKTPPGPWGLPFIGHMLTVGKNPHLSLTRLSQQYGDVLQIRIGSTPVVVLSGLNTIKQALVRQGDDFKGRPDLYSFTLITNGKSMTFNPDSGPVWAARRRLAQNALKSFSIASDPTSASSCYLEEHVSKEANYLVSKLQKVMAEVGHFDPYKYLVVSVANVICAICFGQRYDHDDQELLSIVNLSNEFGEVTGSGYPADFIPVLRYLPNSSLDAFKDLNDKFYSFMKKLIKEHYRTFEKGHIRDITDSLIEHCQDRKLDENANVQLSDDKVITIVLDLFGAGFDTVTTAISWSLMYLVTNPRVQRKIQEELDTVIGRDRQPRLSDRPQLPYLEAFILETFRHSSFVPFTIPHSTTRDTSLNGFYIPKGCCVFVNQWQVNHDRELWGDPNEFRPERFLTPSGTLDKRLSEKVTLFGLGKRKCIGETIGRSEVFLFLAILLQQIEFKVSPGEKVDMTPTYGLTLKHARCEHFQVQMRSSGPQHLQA
The data set is described as follows: Inhibition of CYP1A1 in mouse RAW264.7 cells assessed as relative activity by measuring fold change at 5 uM incubated for 12 hrs by EROD assay relative to control. The note with it: read-out: FC. It is filed as cell-based.

Data set [3] can be described thus: Toxicity in male C57BL/6 mouse assessed as effect on alanine transaminase (ALT) level in serum up to 100 mg/kg, ip measured after 12 hrs. The conditions noted are these: in vivo. Format: organism-based.
A short description of data set [4]: Toxicity in male C57BL/6 mouse assessed as effect on creatinine level in serum up to 100 mg/kg, ip measured after 12 hrs. The note with it: in vivo. It is filed as organism-based.
A short description of data set [5]: Toxicity in male C57BL/6 mouse assessed as change in body weight at 1 to 100 mg/kg, ip measured after 7 days. The conditions noted are these: in vivo, 168 h, dose 1-100 mg/kg, time 7 day. Format: organism-based.
A short description of data set [6]: Toxicity in male C57BL/6 mouse assessed as change in fur condition at 1 to 100 mg/kg, ip measured after 7 days. Format: organism-based. The conditions noted are these: in vivo, 168 h, dose 1-100 mg/kg, time 7 day.
Data set [7] concerns Staphylococcus aureus. The data set is described as follows: Antibacterial activity against methicillin-resistant Staphylococcus aureus infected in CYP1A1 knockout mouse model assessed as increase in survival rate at 25 mg/kg, ip pretreated for 12 hrs followed by bacterial infection and measured after 60 hrs by Kaplan Meier survival analysis. Format: functional, organism-based. The conditions noted are these: time 72.0 hrs.

Data set [8] relates to Staphylococcus aureus. The data set is described as follows: Antibacterial activity against methicillin-resistant Staphylococcus aureus infected in C57BL/6 mouse model assessed as reduction in liver damage at 25 mg/kg, ip administered for 12 hrs by H and E staining based analysis. It is filed as functional, organism-based.
Data set [9] concerns Staphylococcus aureus. The data set is described as follows: Antibacterial activity against methicillin-resistant Staphylococcus aureus infected in C57BL/6 mouse model assessed as reversal of alanine transaminase level in serum at 25 mg/kg, ip administered for 12 hrs by absorbance based microplate reader. It is filed as functional, organism-based.
The test system of data set [10] is Staphylococcus aureus. The data set is described as follows: Antibacterial activity against methicillin-resistant Staphylococcus aureus infected in C57BL/6 mouse assessed as reversal of blood urea nitrogen level in serum at 25 mg/kg, ip administered for 12 hrs by absorbance based microplate reader. Format: functional, organism-based.
In the next data set the test system is Mus musculus. The data set is described as follows: Effect on CYP1A1 protein expression in C57BL/6 mouse kidney infected with methicillin-resistant Staphylococcus aureus at 25 mg/kg, ip administered for 12 hrs by Western blot analysis. Format: functional, organism-based. A general note: Immunoblotting shows a protein as a band on a membrane.
The test system of data set [11] is Staphylococcus aureus. The data set is described as follows: Antibacterial activity against methicillin-resistant Staphylococcus aureus assessed as inhibition of bacterial growth at 0.02 to 2.5 mg/ml. Format: functional, organism-based. The conditions noted are these: dose 0.02-2.5 mg/ml.
Data set [12] has as its system Acinetobacter baumannii. Nature of the data set: Antibacterial activity against Acinetobacter baumannii assessed as inhibition of bacterial growth at 0.02 to 2.5 mg/ml. It is filed as functional, organism-based. The conditions noted are these: dose 0.02-2.5 mg/ml.
Data set [13] deals with Acinetobacter baumannii. Nature of the data set: Antibacterial activity against Acinetobacter baumannii infected in C57BL/6 mouse model assessed as reduction in bacterial load in peritoneal lavage fluid at 25 mg/kg, ip pretreated for 12 hrs followed by bacterial infection and measured after 24 hrs relative to control. Format: functional. Details: scale not given: the % may be the effect or the level left. The note with it: time 36 hrs.

The subject of data set [14] is Staphylococcus aureus. Nature of the data set: Antibacterial activity against methicillin-resistant Staphylococcus aureus infected in C57BL/6 mouse model assessed as reduction in bacterial load in peritoneal lavage fluid at 25 mg/kg, ip pretreated for 12 hrs followed by bacterial infection and measured after 24 hrs relative to control. It is filed as functional. Details: scale not given: the % may be the effect or the level left. The note with it: time 36 hrs.

For data set [15], the system named is RAW264.7. The data set is described as follows: Induction of phagocytosis in mouse RAW264.7 cells assessed as upregulation of SR-A1 mRNA expression by qRT-PCR analysis. It is filed as functional, cell-based. (In general: In qPCR the cycle at which signal appears reflects the starting amount.)
The subject of data set [16] is Staphylococcus aureus. The data set is described as follows: Antibacterial activity against methicillin-resistant Staphylococcus aureus infected in C57BL/6 mouse model assessed as reduction in bacterial dissemination from PLF to blood at 25 mg/kg, ip preadministered for 12 hrs followed by bacterial infection and measured after 24 hrs. Format: functional, organism-based. The conditions noted are these: time 36.0 hrs.

Data set [17] deals with Staphylococcus aureus. The data set is described as follows: Antibacterial activity against methicillin-resistant Staphylococcus aureus infected in C57BL/6 mouse model assessed as reduction in bacterial dissemination from PLF to liver at 25 mg/kg, ip preadministered for 12 hrs followed by bacterial infection and measured after 24 hrs. Format: functional, organism-based. The note with it: time 36.0 hrs.

Data set [18] relates to RAW264.7. The data set is described as follows: Induction of phagocytosis in zymosan A stimulated mouse RAW264.7 cells assessed as upregulation of SR-A1 mRNA expression at 5.0 uM incubated for 12 hrs by qRT-PCR analysis. Format: functional, cell-based.
The subject of data set [19] is Staphylococcus aureus. Nature of the data set: Antibacterial activity against methicillin-resistant Staphylococcus aureus infected in CYP1A1 deficient mouse assessed as bacterial clearance in PLF at 25 mg/kg, ip pretreated for 12 hrs followed by bacterial infection for 24 hrs. The conditions noted are these: time 36.0 hrs. Format: functional, organism-based.
For the next data set, the system named is Escherichia coli. Nature of the data set: Antibacterial activity Escherichia coli infected in C57BL/6 mouse model assessed as increase in survival rate at 25 mg/kg, ip incubated for 12 hrs followed by bacterial infection and measured after 100 hrs by Kaplan Meier survival analysis. It is filed as functional, organism-based. The conditions noted are these: time 112.0 hrs.

Active and inactive are the calls of the source. The rule behind the calls is not given here.

On to `C#Cc1ccccc1/C=C/C(=O)c1ccc2c(c1)n(C)c(=O)n2C`, for which, at CYP1A1 [1], the fold induction at 12 h, 0.5 µM turned out to be 0.06. In addition, the fold induction at 12 h, 5 µM at CYP1A1 [2] stood at 0.03. Besides, the Activity entry in [3] is on record as “Non-toxic”; in [4] it was “Non-toxic”; in data set [5], “Non-toxic”; in data set [6] it was “Non-toxic”; with Acinetobacter baumannii [13], over 70%; in the data set with Staphylococcus aureus [14], over 70%. The outcome in the data set on Staphylococcus aureus [7], in the data set on Mus musculus and in the data set with Staphylococcus aureus [19] was inactive. Moreover, the result in the data set with Staphylococcus aureus [8], in the data set on Staphylococcus aureus [9], with Staphylococcus aureus [10], in the data set on Staphylococcus aureus [11], with Acinetobacter baumannii [12] and with RAW264.7 [15] was Active. Also, the result with Staphylococcus aureus [16], with Staphylococcus aureus [17], with RAW264.7 [18] and in the data set on Escherichia coli was Active.
Regarding `Cn1cc(/C=C/C(=O)c2ccc3c(c2)n(C)c(=O)n3C)c2ccccc21`, the fold induction at 12 h, 0.5 µM at CYP1A1 [1] turned out to be 0.25. The fold induction at 12 h, 5 µM on CYP1A1 [2] turned out to be 0.25. Further, the Activity entry in data set [3] is listed as “Non-toxic”; in data set [4] it was “Non-toxic”; in [5], “Non-toxic”; in data set [6], “Non-toxic”; in the data set with Acinetobacter baumannii [13], over 70%; in the data set on Staphylococcus aureus [14] it was over 70%. In addition, the outcome in the data set on Staphylococcus aureus [7], in the data set on Mus musculus and with Staphylococcus aureus [19] was inactive. For the same compound, the outcome with Staphylococcus aureus [8], in the data set on Staphylococcus aureus [9], in the data set on Staphylococcus aureus [10], in the data set with Staphylococcus aureus [11], in the data set with Acinetobacter baumannii [12] and in the data set on RAW264.7 [15] was Active. Moreover, the outcome in the data set on Staphylococcus aureus [16], in the data set on Staphylococcus aureus [17], in the data set with RAW264.7 [18] and with Escherichia coli was Active.

The record behind these values is ChEMBL document CHEMBL6178019, “Discovery of CYP1A1 Inhibitors for Host-Directed Therapy against Sepsis” (J Med Chem, 2025).
